Drawing on patent publication US5948785A, “Heterocyclic amide compounds and pharmaceutical use of the same” (The Green Cross Corporation, priority 1995, dated 1999), this text covers Ki for six molecules.

Each structure is given as a SMILES string.

This assay deals with T1, human heart chymase (Homo sapiens, UniProt P23946).
T1 sequence (P23946 22-247): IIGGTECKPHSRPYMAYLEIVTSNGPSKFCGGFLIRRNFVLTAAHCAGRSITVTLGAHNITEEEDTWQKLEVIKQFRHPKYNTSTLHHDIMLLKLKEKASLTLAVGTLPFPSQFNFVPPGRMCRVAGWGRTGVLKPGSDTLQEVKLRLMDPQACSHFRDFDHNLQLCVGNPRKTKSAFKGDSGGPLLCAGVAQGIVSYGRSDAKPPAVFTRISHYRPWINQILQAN
The assay can be described thus: Inhibitory activity on amidase activity of human heart chymase. It counts as biochemical. To be noted: 5 nM chymase; succinyl-alanyl-alanyl-prolyl-phenylalanine-p-nitroanilide 2.5 mM; pH 9.0; Easson-Stedman plot; read-out: K^i (human heart chymase inhibitory activity). The method, then:
The effectiveness of the inhibitory activity of compound (I) of the present invention was evaluated based on the inhibitory activity on amidase activity of human heart chymase, which was determined as in the following.
The inhibitory activity was quantitatively determined through variation in fractional residual activity of the enzyme caused by the inventive compound in defined serial concentration (<×1, <×10, <×100-fold equivalents) relative to 5 nM chymase in the presence of synthetic substrate, succinyl-alanyl-alanyl-prolyl-phenylalanine-p-nitroanilide (final concentration 2.5 mM). The inhibitory effect was analyzed by least square regression of Easson-Stedman plot (Proc. Roy. Soc. B. 1936, 121, p. 141) utilizing bimolecular equilibrium reaction linearization formula. The inhibitory activity was evaluated by the apparent inhibitory constant (Kiapp) obtained by this analysis and inhibitory constant (Ki) calculated from final substrate concentration in the reaction mixture and Km values separately determined. The quantitative determination of initial rate of the enzyme reaction was spectrophotometrically detected in terms of an increased amount of p-nitroaniline at 405 nm produced by hydrolysis of the substrate. The chymase inhibitory activity of the compound of the present invention was calculated as ratio of residual activity in the presence of inhibitor relative to enzyme activity in the absence of inhibitor, and incorporation of the determination values was completed at a level less than initial rate guarantee absorbance at a concentration of the substrate used for the enzyme, after which analysis was performed.
The reaction mixture consisted of an Na2 B4 O7 (100 mM)-KH2 PO4 (50 mM) buffer (pH 9.0, 120 μl) containing 0.1% Triton-X100, the inventive compound dissolved in 20 μl of 10% dimethyl sulfoxide (DMSO), 10% bovine serum albumin dissolved in 20 μl of the same buffer, substrate dissolved in 20 μl of DMSO, and 20 μl of chymase, thus amounting to 200 μl in total.
Starting with the absorbance immediately after addition of the enzyme, increases in absorbance were recorded as a progressive curve taken precisely at equal time intervals.
From the above data, the difference between absorbances at completion of the reaction and immediately after addition was used to quantitatively determine the residual activity of the sample added with the inhibitor relative to a control wherein the inhibitor was not added. Alternatively, reaction rates of the control and the sample added with the inhibitor were calculated for certain time period (≥20 min) with successive shift (every 10 to 30 minutes) of the period, and the residual activity ratio was quantitatively determined and analyzed from the respective reaction rates averaged through the entire reaction time.
Regarding `Nc1cnc(-c2ccccc2)n(CC(=O)NC(Cc2ccccc2)C(=O)C(F)(F)F)c1=O` (stereo not drawn) [Example 2, 2-(5-amino-6-oxo-2-phenyl-1,6-dihydro-1-pyrimidyl)-N-(1-benzyl-3,3,3-trifluoro-2-oxopropyl)acetamide], the Ki was determined as 7.2 µM.

Turning to `O=C(Cn1c(-c2ccc(F)cc2)ncc(NC(=O)OCc2ccccc2)c1=O)NC(Cc1ccccc1)C(=O)C(F)(F)F` (stereo not drawn) [Example 3, 2-[5-benzyloxycarbonylamino-2-(4-fluorophenyl)-6-oxo-1,6-dihydro-1-pyrimidyl]-N-(1-benzyl-3,3,3-trifluoro-2-oxopropyl)acetamide], the Ki was determined as 5.6 µM.

As to `Nc1cnc(-c2ccc(F)cc2)n(CC(=O)NC(Cc2ccccc2)C(=O)C(F)(F)F)c1=O` (stereo not drawn) [Example 4, 2-[5-amino-2-(4-fluorophenyl)-6-oxo-1,6-dihydro-1-pyrimidyl]-N-(1-benzyl-3,3,3-trifluoro-2-oxopropyl)acetamide], the Ki was found to be 4.1 µM.

Turning to `Cc1ccc(-c2ncc(NC(=O)OCc3ccccc3)c(=O)n2CC(=O)NC(Cc2ccccc2)C(=O)C(F)(F)F)cc1` (stereo not drawn) [Example 5, 2-[5-benzyloxycarbonylamino-6-oxo-2-(p-tolyl)-1,6-dihydro-1-pyrimidyl]-N-(1-benzyl-3,3,3-trifluoro-2-oxopropyl)-acetamide], the Ki amounted to 8.7 µM.

Take `Cc1ccc(-c2ncc(N)c(=O)n2CC(=O)NC(Cc2ccccc2)C(=O)C(F)(F)F)cc1` (stereo not drawn) [Example 6, 2-[5-amino-6-oxo-2-(p-tolyl)-1,6-dihydro-1-pyrimidyl]-N-(1-benzyl-3,3,3-trifluoro-2-oxopropyl)acetamide]: the Ki amounted to 7 µM.

As to `Cc1cccc(-c2ncc(NC(=O)OCc3ccccc3)c(=O)n2CC(=O)NC(Cc2ccccc2)C(=O)C(F)(F)F)c1` (stereo not drawn) [Example 7, 2-[5-benzyloxycarbonylamino-6-oxo-2-(m-tolyl)-1,6-dihydro-1-pyrimidyl]-N-(1-benzyl-3,3,3-trifluoro-2-oxopropyl)-acetamide], the Ki was determined as 4.8 µM.
